Results taken from patent publication US6022497A, “Photochromic six-membered heterocyclic-fused naphthopyrans” (PPG Industries Ohio, Inc., priority 1999, dated 2000).

Experiments:
Assay type in all cases: physicochemical
[1] = photochromic response of test squares on an optical bench (sensitivity, saturation, bleach rate); details: for ΔOD @ Saturation: UV exposure continued for 15 minutes; for ΔOD @ Saturation / Sensitivity ΔOD/min: 72° F. (22.2° C.); for Sensitivity ΔOD/min: first five (5) seconds of UV exposure, expressed per minute; for Bleach Rate T 1/2: time to one half the highest absorbance at room temperature (72° F., 22.2° C.) after removal of activating light
Procedure: (§1) Testing was done with the photochromic compounds prepared in Examples 1-14 in the following manner. A quantity of each photochromic compound, except Compounds 13A and 14, calculated to yield a 1.5×10^-3 molal solution was added to a flask containing 50 grams of a monomer blend of 4 parts ethoxylated bisphenol A dimethacrylate (BPA 2EO DMA), 1 part poly(ethylene glycol) 600 dimethacrylate, and 0.033 weight percent 2,2'-azobis(2-methyl propionitrile) (AIBN). Each photochromic compound was dissolved into the monomer blend by stirring and gentle heating. After a clear solution was obtained, it was poured into a flat sheet mold having the interior dimensions of 2.2 mm×6 inches (15.24 cm)×6 inches (15.24 cm). The mold was sealed and placed in a horizontal air flow, programmable oven programmed to increase the temperature from 40° C. to 95° C. over a 5 hour interval, hold the temperature at 95° C. for 3 hours, lower it to 60° C. over a 2 hour interval and then hold at 60° C. for 16 hours. After the mold was opened, the polymer sheet was cut using a diamond blade saw into 2 inch (5.1 centimeters) test squares.
The photochromic test squares prepared in Part A were tested for photochromic response on an optical bench. Prior to testing on the optical bench, the photochromic test squares were exposed to 365 nanometer ultraviolet light for about 15 minutes to activate the photochromic compounds and then placed in a 76° C. oven for about 15 minutes to bleach or inactivate the photochromic compounds. The test squares were then cooled to room temperature, exposed to fluorescent room lighting for at least 2 hours and then kept covered for at least 2 hours prior to testing on an optical bench maintained at 72° F. (22.2° C.). The bench was fitted with a 150 watt Xenon arc lamp, a remote controlled shutter, a copper sulfate bath acting as a heat sink for the arc lamp, a Schott WG-320 nm cut-off filter which removes short wavelength radiation; neutral density filter(s) and a sample holder in which the square to be tested was inserted. The power output of the optical bench, i.e., the dosage of light that the sample lens would be exposed to, was calibrated with a photochromic test square used as a reference standard. […] The UV-A detector was placed into the sample holder and the light output was measured. Adjustments to the power output were made by increasing or decreasing the lamp wattage or by adding or removing neutral density filters in the light path.
A monitoring, collimated beam of light from a tungsten lamp was passed through the square at a small angle (approximately 30°) normal to the square. After passing through the square, the light from the tungsten lamp was directed to a detector through Spectral Energy Corp. GM-200 monochromator set at the previously determined visible lambda max of the photochromic compound being measured. The output signals from the detector were processed by a radiometer.
Change in optical density (ΔOD) was determined by inserting a test square in the bleached state into the sample holder, adjusting the transmittance scale to 100%, opening the shutter from the Xenon lamp to provide ultraviolet radiation to change the test square from the bleached state to an activated (i.e., darkened) state, measuring the transmittance in the activated state, and calculating the change in optical density according to the formula: ΔOD=log(100/% Ta), where % Ta is the percent transmittance in the activated state and the logarithm is to the base 10.
The ΔOD/min, which represents the sensitivity of the photochromic compound's response to UV light, was measured over the first five (5) seconds of UV exposure, then expressed on a per minute basis. The saturation optical density (ΔOD@ Saturation) was taken under identical conditions as the ΔOD/min, except UV exposure was continued for 15 minutes. […]

[2] = lambda max (Vis) of photochromic test square polymerizates, UV-Visible spectrophotometer; details: activated (colored) form in polymer test square (BPA 2EO DMA / poly(ethylene glycol) 600 dimethacrylate), 1.5×10^-3 molal
Procedure: as §1
The ΔOD/min, which represents the sensitivity of the photochromic compound's response to UV light, was measured over the first five (5) seconds of UV exposure, then expressed on a per minute basis. The saturation optical density (ΔOD@ Saturation) was taken under identical conditions as the ΔOD/min, except UV exposure was continued for 15 minutes. The lambda max (Vis) is the wavelength in nanometers (nm) in the visible spectrum at which the maximum absorption of the activated (colored) form of the photochromic compound in a test square occurs. The lambda max (Vis) wavelength was determined by testing the photochromic test square polymerizates of Part A in a Varian Cary 3 UV-Visible spectrophotometer. The Bleach Rate (T 1/2) is the time interval in seconds for the absorbance of the activated form of the photochromic compound in the test squares to reach one half the highest absorbance at room temperature (72° F., 22.2° C.) after removal of the source of activating light.

[3] = lambda max (Vis) of compound in solution, UV/Visible spectrophotometer; details: solution in diethylene glycol dimethyl ether, approximately 0.5 milligram per milliliter
Procedure: The compound of Example 13 identified as 13A and the compound of Example 14 were dissolved in diethylene glycol dimethyl ether. The concentration of the resulting solution was approximately 0.5 milligram per milliliter. Each solution was tested in a UV/Visible Spectrophotometer to determine the lambda max (Vis).

SMILES | ΔOD @ Saturation [1] | Sensitivity ΔOD/min [1] | Bleach Rate T 1/2 [1] [min] | lambda max (Vis) [2] [nanometers] | lambda max (Vis) [3] [nanometers]
O=C1OCOc2c1c1c(c3ccccc23)OC(c2ccccc2)(c2ccccc2)C=C1 [Example 1, 7,7-diphenyl-4-oxo-4H-7H-[1,3]dioxino[5'4':3,4]naphtho[1,2-b]pyran] | 1.89 | 0.76 ΔOD/min | 3.67 | 472 | –
COc1ccc(C2(c3ccc(OC)cc3)C=Cc3c4c(c5ccccc5c3O2)OCOC4=O)cc1 [Example 2, 7,7-di(4-methoxyphenyl)-4-oxo-4H-7H-[1,3]dioxino[5',4':3,4]naphtho[1,2-b]pyran] | 0.67 | 0.74 ΔOD/min | 0.85 | 510 | –
CCCCCC1OC(=O)c2c3c(c4ccccc4c2O1)OC(c1ccccc1)(c1ccc(OC)cc1)C=C3 (centres unmarked) [Example 3, 7-(4-methoxyphenyl)-7-phenyl-2-pentyl-4-oxo-4H-7H-[1,3]dioxino[5',4':3,4]naphtho[1,2-b]pyran] | 1.28 | 0.75 ΔOD/min | 1.95 | 496 | –
CCC1OC(=O)c2c3c(c4ccccc4c2O1)OC(c1ccccc1)(c1ccccc1)C=C3 (centres unmarked) [Example 4, 7,7-diphenyl-2-ethyl-4-oxo-4H-7H-[1,3]dioxino[5',4':3,4]naphtho[1,2-b]pyran] | 1.71 | 0.67 ΔOD/min | 4.13 | 474 | –
CCCCCC1OC(=O)c2c3c(c4ccccc4c2O1)OC(c1ccccc1)(c1ccccc1)C=C3 (centres unmarked) [Example 5, 7,7-diphenyl-2-pentyl-4-oxo-4H-7H-[1,3]dioxino[5',4':3,4]naphtho[1,2-b]pyran] | 1.74 | 0.67 ΔOD/min | 4.23 | 478 | –
CC(C)CC1OC(=O)c2c3c(c4ccccc4c2O1)OC(c1ccccc1)(c1ccccc1)C=C3 (centres unmarked) [Example 6, 7,7-diphenyl-2-(2-methylpropyl)-4-oxo-4H-7H-[1,3]dioxino[5',4':3,4]naphtho[1,2-b]pyran] | 1.72 | 0.64 ΔOD/min | 4 | 475 | –

Results, then the compound that gave them:

ΔOD @ Saturation [1] | Sensitivity ΔOD/min [1] | Bleach Rate T 1/2 [1] [min] | lambda max (Vis) [2] [nanometers] | lambda max (Vis) [3] [nanometers] | SMILES
1.46 | 0.60 ΔOD/min | 4.13 | 476 | – | O=C1OC(c2ccccc2)Oc2c1c1c(c3ccccc23)OC(c2ccccc2)(c2ccccc2)C=C1 (centres unmarked) [Example 7, 2,7,7-triphenyl-4-oxo-4H-7H-[1,3]dioxino[5',4':3,4]naphtho[1,2-b]pyran]
1.58 | 0.63 ΔOD/min | 4.18 | 475 | – | CC(c1ccccc1)C1OC(=O)c2c3c(c4ccccc4c2O1)OC(c1ccccc1)(c1ccccc1)C=C3 (centres unmarked) [Example 8, 7,7-diphenyl-2-(1-phenylethyl)-4-oxo-4H-7H-[1,3]dioxino[5',4':3,4]naphtho[1,2-b]pyran]
0.40 | 0.41 ΔOD/min | 0.85 | 469 | – | Cn1c(=O)oc2c(c3c(c4ccccc42)OC(c2ccccc2)(c2ccccc2)C=C3)c1=O [Example 9, 3-methyl-7,7-diphenyl-2,4-dioxo-2,3,4,7-tetrahydro[1,3]oxazino[5',6':3,4]naphtho[1,2-b]pyran]
0.38 | 0.44 ΔOD/min | 0.7 | 468 | – | CCOC(=O)CCn1c(=O)oc2c(c3c(c4ccccc42)OC(c2ccccc2)(c2ccccc2)C=C3)c1=O [Example 10, 3-(2-ethoxycarbonylethyl)-7,7-diphenyl-2,4-dioxo-2,3,4,7-tetrahydro[1,3]oxazino[5',6':3,4]naphtho[1,2-b]pyran]
0.41 | 0.46 ΔOD/min | 0.883 | 471 | – | CCCCCCn1c(=O)oc2c(c3c(c4ccccc42)OC(c2ccccc2)(c2ccccc2)C=C3)c1=O [Example 11, 3-hexyl-7,7-diphenyl-2,4-dioxo-2,3,4,7-tetrahydro[1,3]oxazino[5',6':3,4]naphtho[1,2-b]pyran]
0.32 | 0.26 ΔOD/min | 2.33 | 467 | – | C=C(C)C(=O)OCCn1c(=O)oc2c(c3c(c4ccccc42)OC(c2ccccc2)(c2ccccc2)C=C3)c1=O [Example 12, 3-(2-methacryloyloxyethyl)-7,7-diphenyl-2,4-dioxo-2,3,4,7-tetrahydro[1,3]oxazino[5',6':3,4]naphtho[1,2-b]pyran]
– | – | – | – | 471 | O=C1OC(c2ccccc2)(c2ccccc2)Nc2c1c1c(c3ccccc23)OC(c2ccccc2)(c2ccccc2)C=C1 [Example 13A, 2,2,7,7-tetraphenyl-4-oxo-2,3,4,7-tetrahydro-1H-[1,3]oxazino[5',4':3,4]naphtho[1,2-b]pyran]
– | – | – | – | 460 | CC1(C)Cc2c(c3c(c4ccccc24)OC(c2ccccc2)(c2ccccc2)C=C3)C(=O)O1 [Example 14]
